How the values were obtained:
Assay in all cases: combination Emax (second highest fraction inhibited in the dose matrix, 72 h); higher = more inhibition; extreme values may be limits of the assay
[1] = system: DiFi (Colorectal Carcinoma)
Summary of the method: (§1)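 Bliss excess equals the observed combination effect minus the expected value EA + EB − EA·EB, where EA and EB are the effects of each agent alone. Combination Emax is the second-highest inhibition within the matrix. Inhibition was scaled from CellTiter-Glo 2.0 luminescence, with 0 set by vehicle wells and 1 by blank wells, after 72 hours of two-drug dosing of cells plated in 1536-well plates.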

[2] = system: TE-6 (Esophageal Squamous Cell Carcinoma)
Summary of the method: as §1

[3] = system: KM12 (Colorectal Carcinoma)
Summary of the method: as §1

[4] = system: CAMA-1 (Breast Carcinoma)
Summary of the method: as §1

[5] = system: KARPAS-45 (T-Lymphoblastic Leukemia)
Summary of the method: as §1

[6] = system: BL-41 (Burkitt's Lymphoma)
Summary of the method: as §1

[7] = system: MS751 (Cervical Carcinoma)
Summary of the method: as §1

[8] = system: SU-DHL-8 (B-Cell Non-Hodgkin's Lymphoma)
Summary of the method: as §1

WM-115 (Melanoma) = system: WM-115 (Melanoma)
Summary of the method: as §1

[9] = system: HDQ-P1 (Breast Carcinoma)
Summary of the method: as §1

CHP-212 (Neuroblastoma) = system: CHP-212 (Neuroblastoma)
Summary of the method: as §1

[10] = system: GR-ST (B-Lymphoblastic Leukemia)
Summary of the method: as §1

[11] = system: K-562 (Chronic Myelogenous Leukemia)
Summary of the method: as §1

ES8 (Ewing's Sarcoma) = system: ES8 (Ewing's Sarcoma)
Summary of the method: as §1

[12] = system: SR (Other Blood Carcinomas)
Summary of the method: as §1

[13] = system: NCI-H1792 (Lung Adenocarcinoma)
Summary of the method: as §1

[14] = system: NCI-H847 (Small Cell Lung Carcinoma)
Summary of the method: as §1

[15] = system: HL-60 (Acute Myeloid Leukemia)
Summary of the method: as §1

[16] = system: MKN28 (Gastric Carcinoma)
Summary of the method: as §1

[17] = system: SW837 (Colorectal Carcinoma)
Summary of the method: as §1

SMILES	combination Emax [1]	combination Emax [2]	combination Emax [3]	combination Emax [4]	combination Emax [5]	combination Emax [6]	combination Emax [7]	combination Emax [8]	combination Emax (WM-115 (Melanoma))	combination Emax [9]	combination Emax (CHP-212 (Neuroblastoma))	combination Emax [10]	combination Emax [11]	combination Emax (ES8 (Ewing's Sarcoma))	combination Emax [12]	combination Emax [13]	combination Emax [14]	combination Emax [15]	combination Emax [16]	combination Emax [17]
CC1(C)CCC(CN2CCN(c3ccc(C(=O)NS(=O)(=O)c4ccc(NCC5CCOCC5)c([N+](=O)[O-])c4)c(Oc4cnc5[nH]ccc5c4)c3)CC2)=C(c2ccc(Cl)cc2)C1 [Venetoclax] + Cn1cnc2c(F)c(Nc3ccc(Br)cc3Cl)c(C(=O)NOCCO)cc21 [Selumetinib] (first compound max 1 µM, 7x7, partner max 3 µM)	0.351	0.319	0.555	0.0815	0.317	0.196	0.191	0.31	0.42	0.182	0.878	0.481	0.414	0.195	0.791	0.251	0.168	0.937	0.278	0.297
Cc1cc2ncnn2cc1Nc1ncc2c(n1)n(C1CCOCC1)c(=O)n2C [AZD7648] + CN(C)CCCOc1ccc(-c2ccc3ncc4c(c3c2)n(C2CCOCC2)c(=O)n4C)cn1 [AZD0156] (first compound max 10 µM, 7x7, partner max 1 µM)	0.273	0.363	0.241	0.261	0.234	0.269	0.275	0.125	0.328	0.403	0.288	0.489	0.2	0.408	0.377	0.469	0.663	0.416	0.287	0.154
CC1(C)CCC(CN2CCN(c3ccc(C(=O)NS(=O)(=O)c4ccc(NCC5CCOCC5)c([N+](=O)[O-])c4)c(Oc4cnc5[nH]ccc5c4)c3)CC2)=C(c2ccc(Cl)cc2)C1 [Venetoclax] + CN(C)CCCOc1ccc(-c2ccc3ncc4c(c3c2)n(C2CCOCC2)c(=O)n4C)cn1 [AZD0156] (first compound max 1 µM, 7x7, partner max 1 µM)	0.288	0.289	0.17	0.145	0.478	0.163	0.198	0.334	0.179	0.139	0.17	0.704	0.374	0.869	0.907	0.223	0.378	0.71	0.26	0.145
Cc1cc2ncnn2cc1Nc1ncc2c(n1)n(C1CCOCC1)c(=O)n2C [AZD7648] + C[C@@H]1COCCN1C2=NC(=NC(=C2)C3(CC3)[S@](=N)(=O)C)C4=C5C=CNC5=NC=C4 [AZD6738] (first compound max 10 µM, 7x7, partner max 10 µM)	0.842	0.553	0.636	0.393	0.74	1	0.296	0.899	0.571	0.468	0.776	0.743	0.892	0.798	0.924	0.696	1	0.834	0.514	0.39
CCN(CCO)CCCOc1ccc2c(Nc3cc(CC(=O)Nc4cccc(F)c4)[nH]n3)ncnc2c1 [AZD2811] + C[C@@H]1COCCN1C2=NC(=NC(=C2)C3(CC3)[S@](=N)(=O)C)C4=C5C=CNC5=NC=C4 [AZD6738] (first compound max 1 µM, 7x7, partner max 10 µM)	0.819	0.543	0.612	0.304	0.948	1	0.492	0.918	0.523	0.391	0.791	0.732	0.881	1	0.968	0.655	1	0.899	0.519	0.361
CCN(CCO)CCCOc1ccc2c(Nc3cc(CC(=O)Nc4cccc(F)c4)[nH]n3)ncnc2c1 [AZD2811] + O=C(c1cc(Cc2n[nH]c(=O)c3ccccc23)ccc1F)N1CCN(C(=O)C2CC2)CC1 [Olaparib] (first compound max 1 µM, 7x7, partner max 10 µM)	0.516	0.212	0.176	0.206	0.882	0.603	0.243	0.738	0.259	0.264	0.771	0.448	0.366	0.997	0.875	0.175	0.956	0.83	0.238	0.183
COc1cccc(OCCCN)c1-c1cc(Nc2cnc(C#N)cn2)n[nH]1 [Prexasertib] + CCc1c2c(nc3ccc(O)cc13)-c1cc3c(c(=O)n1C2)COC(=O)[C@]3(O)CC [SN-38] (first compound max 1 µM, 7x7, partner max 0.3 µM)	0.931	0.884	0.939	0.507	1	1	0.984	1	0.514	0.944	0.827	0.871	0.983	0.989	0.998	0.893	1	0.982	0.742	0.844
CCN(CCO)CCCOc1ccc2c(Nc3cc(CC(=O)Nc4cccc(F)c4)[nH]n3)ncnc2c1 [AZD2811] + C=CCn1c(=O)c2cnc(Nc3ccc(N4CCN(C)CC4)cc3)nc2n1-c1cccc(C(C)(C)O)n1 [AZD1775] (first compound max 1 µM, partner max 1 µM)	0.671	0.236	0.705	0.171	0.936	1	0.599	0.929	0.193	0.522	0.843	0.789	0.811	1	0.991	0.608	1	0.845	0.5	0.15
CN(C)CCCOc1ccc(-c2ccc3ncc4c(c3c2)n(C2CCOCC2)c(=O)n4C)cn1 [AZD0156] + O=C(c1cc(Cc2n[nH]c(=O)c3ccccc23)ccc1F)N1CCN(C(=O)C2CC2)CC1 [Olaparib] (first compound max 3 µM, partner max 3 µM)	0.223	0.417	0.36	0.285	0.238	0.366	0.232	0.266	0.356	0.371	0.519	0.6	0.171	0.877	0.675	0.267	0.64	0.489	0.0496	0.185
C=CCn1c(=O)c2cnc(Nc3ccc(N4CCN(C)CC4)cc3)nc2n1-c1cccc(C(C)(C)O)n1 [AZD1775] + O=C(c1cc(Cc2n[nH]c(=O)c3ccccc23)ccc1F)N1CCN(C(=O)C2CC2)CC1 [Olaparib] (first compound max 1 µM, partner max 10 µM)	0.678	0.319	0.748	0.149	0.847	1	0.215	0.877	0.259	0.517	0.831	0.806	0.845	0.829	0.995	0.707	1	0.36	0.573	0.39
CC1(C)CCC(CN2CCN(c3ccc(C(=O)NS(=O)(=O)c4ccc(NCC5CCOCC5)c([N+](=O)[O-])c4)c(Oc4cnc5[nH]ccc5c4)c3)CC2)=C(c2ccc(Cl)cc2)C1 [Venetoclax] + C1CN(CCC1(C(=O)N[C@@H](CCO)C2=CC=C(C=C2)Cl)N)C3=NC=NC4=C3C=CN4 [Capivasertib] (first compound max 1 µM, 7x7, partner max 3 µM)	0.34	0.503	0.501	0.63	0.81	0.252	0.138	0.254	0.397	0.205	0.152	0.696	0.369	0.532	0.835	0.223	0.829	0.781	0.255	0.127
CN(CCO)CC[C@H](CSc1ccccc1)Nc1ccc(S(=O)(=O)NC(=O)c2ccc(N3CCC([C@@H](O)c4ccccc4-c4ccc(Cl)cc4)CC3)cc2)cc1S(=O)(=O)C(F)(F)F [AZD4320] + Cn1cnc2c(F)c(Nc3ccc(Br)cc3Cl)c(C(=O)NOCCO)cc21 [Selumetinib] (first compound max 1 µM, 7x7, partner max 3 µM)	0.951	0.593	0.579	0.468	0.996	0.801	0.413	0.988	0.878	0.771	0.925	0.494	0.516	0.99	0.731	0.369	1	0.994	0.356	0.489
Cc1c2c(nn1C)CSCc1cc(n(C)n1)CSc1cc(c3ccccc3c1)OCCCc1c(C(=O)O)n(C)c3c-2c(Cl)ccc13 [AZD5991] + C[C@@H]1COCCN1C2=NC(=NC(=C2)C3(CC3)[S@](=N)(=O)C)C4=C5C=CNC5=NC=C4 [AZD6738] (first compound max 1 µM, 7x7, partner max 10 µM)	0.923	0.817	0.746	0.751	1	1	0.901	1	0.471	0.387	0.939	0.716	0.864	0.891	1	0.731	0.994	1	0.405	0.354
